From ChEMBL document CHEMBL1201862, “PubChem BioAssay data set” (2004)
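Growth conditions: 96-well plates. Treatment: test compound, 48 hours, 5 concentrations. Analysis: linear interpolation between bracketing concentrations; unreached endpoints set to highest concentration. Here, GI50 denotes the concentration required for 50% inhibition of growth.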 Calls of active or inactive are those of the source. No stated cut-off is given here; in the data, active = GI50 up to about 1.1 µM and inactive = higher.

Tests used:
Assay in all cases: NCI tumour cell line growth inhibition, 48 h
A498 = system: A498
SF-295 = system: SF-295
KM12 = system: KM12
T47D = system: T47D
SN12C = system: SN12C
DU-145 = system: DU-145
RPMI-8226 = system: RPMI-8226
Malme-3M = system: Malme-3M
NCI-H23 = system: NCI-H23
M14 = system: M14
786-0 = system: 786-0
OVCAR-4 = system: OVCAR-4
HCT-116 = system: HCT-116
UO-31 = system: UO-31
HOP-92 = system: HOP-92
CAKI-1 = system: CAKI-1
SNB-75 = system: SNB-75
MOLT-4 = system: MOLT-4
SR = system: SR
MDA-N = system: MDA-N

| SMILES | GI50 (A498) | GI50 (SF-295) | GI50 (KM12) | GI50 (T47D) | GI50 (SN12C) | GI50 (DU-145) | GI50 (RPMI-8226) | GI50 (Malme-3M) | GI50 (NCI-H23) | GI50 (M14) | GI50 (786-0) | GI50 (OVCAR-4) | GI50 (HCT-116) | GI50 (UO-31) | GI50 (HOP-92) | GI50 (CAKI-1) | GI50 (SNB-75) | GI50 (MOLT-4) | GI50 (SR) | GI50 (MDA-N) |
| --- | --- | --- | --- | --- | --- | --- | --- | --- | --- | --- | --- | --- | --- | --- | --- | --- | --- | --- | --- | --- |
| COC(=O)C1=C(OC(=O)/C(=C/c2ccc(Cl)cc2)c2ccccc2)C(C(=O)OC)[C@@]2(O)[C@@H](C(=O)OC)[C@H](C)C[C@@H]1[C@@H]2C(=O)OC (stereo not given in full) | 5.55 µM (inactive) | 6.79 µM (inactive) | > 100 µM (inactive) | > 100 µM (inactive) | > 100 µM (inactive) | > 100 µM (inactive) | > 100 µM (inactive) | > 100 µM (inactive) | 9.73 µM (inactive) | > 100 µM (inactive) | > 100 µM (inactive) | > 100 µM (inactive) | > 100 µM (inactive) | > 100 µM (inactive) | 0.573 µM (active) | > 100 µM (inactive) | 29.6 µM (inactive) | > 100 µM (inactive) | > 100 µM (inactive) | – |
| CO/C(N)=C(C#N)/N=C/c1ccsc1 | > 100 µM (inactive) | > 100 µM (inactive) | 60.7 µM (inactive) | 68.4 µM (inactive) | > 100 µM (inactive) | 42.4 µM (inactive) | – | 40.6 µM (inactive) | 37.3 µM (inactive) | 29 µM (inactive) | 23.9 µM (inactive) | > 100 µM (inactive) | 40 µM (inactive) | > 100 µM (inactive) | 34.1 µM (inactive) | 37.2 µM (inactive) | 56 µM (inactive) | 47.6 µM (inactive) | – | 28.5 µM (inactive) |
| CC(=O)NCCCCNCCCNC(C)=O | > 100 µM (inactive) | > 100 µM (inactive) | > 100 µM (inactive) | > 100 µM (inactive) | > 100 µM (inactive) | > 100 µM (inactive) | > 100 µM (inactive) | > 100 µM (inactive) | > 100 µM (inactive) | > 100 µM (inactive) | > 100 µM (inactive) | > 100 µM (inactive) | > 100 µM (inactive) | > 100 µM (inactive) | > 100 µM (inactive) | > 100 µM (inactive) | > 100 µM (inactive) | > 100 µM (inactive) | – | > 100 µM (inactive) |
| CCCCCCNCCc1c[nH]cn1 | > 100 µM (inactive) | > 100 µM (inactive) | > 100 µM (inactive) | > 100 µM (inactive) | > 100 µM (inactive) | > 100 µM (inactive) | > 100 µM (inactive) | > 100 µM (inactive) | > 100 µM (inactive) | > 100 µM (inactive) | > 100 µM (inactive) | > 100 µM (inactive) | > 100 µM (inactive) | > 100 µM (inactive) | > 100 µM (inactive) | > 100 µM (inactive) | > 100 µM (inactive) | > 100 µM (inactive) | > 100 µM (inactive) | – |
| CN(Cc1cnc2nc(N)nc(N)c2n1)c1ccc(C(=O)NCS(=O)(=O)O)cc1 | > 100 µM (inactive) | > 100 µM (inactive) | 60.1 µM (inactive) | > 100 µM (inactive) | > 100 µM (inactive) | 25.7 µM (inactive) | > 100 µM (inactive) | > 100 µM (inactive) | > 100 µM (inactive) | > 100 µM (inactive) | 59.3 µM (inactive) | > 100 µM (inactive) | 43.3 µM (inactive) | > 100 µM (inactive) | 1.34 µM (inactive) | – | 29.4 µM (inactive) | 68.2 µM (inactive) | – | 63.1 µM (inactive) |
| O=C(CN1CCCC1)Nc1ccc2sc3ccccc3c(=O)c2n1 | – | 22.6 µM (inactive) | 19.5 µM (inactive) | 30.1 µM (inactive) | 16.4 µM (inactive) | 25.9 µM (inactive) | 21.3 µM (inactive) | – | 24.2 µM (inactive) | 24 µM (inactive) | 14.9 µM (inactive) | 34.6 µM (inactive) | 13.9 µM (inactive) | 14.2 µM (inactive) | 27.3 µM (inactive) | 18 µM (inactive) | 19.7 µM (inactive) | 1.91 µM (inactive) | 24.9 µM (inactive) | 20.8 µM (inactive) |
| COC(=O)[C@H](Cc1ccccc1)NP(=O)(OCCC#N)OCC1OC(n2cc(C)c(=O)[nH]c2=O)CC1N=[N+]=[N-] (stereo not given in full) | – | > 100 µM (inactive) | > 100 µM (inactive) | > 100 µM (inactive) | > 100 µM (inactive) | > 100 µM (inactive) | > 100 µM (inactive) | > 100 µM (inactive) | > 100 µM (inactive) | > 100 µM (inactive) | > 100 µM (inactive) | > 100 µM (inactive) | > 100 µM (inactive) | > 100 µM (inactive) | > 100 µM (inactive) | > 100 µM (inactive) | > 100 µM (inactive) | > 100 µM (inactive) | – | > 100 µM (inactive) |
| CN1CC2CC(C1)c1cccc(=O)n1C2 (stereo not given) | – | > 100 µM (inactive) | > 100 µM (inactive) | > 100 µM (inactive) | > 100 µM (inactive) | > 100 µM (inactive) | – | > 100 µM (inactive) | > 100 µM (inactive) | > 100 µM (inactive) | > 100 µM (inactive) | > 100 µM (inactive) | > 100 µM (inactive) | > 100 µM (inactive) | > 100 µM (inactive) | > 100 µM (inactive) | > 100 µM (inactive) | – | – | > 100 µM (inactive) |
